Reference: US4241184A, “Secondary alcohol dehydrogenase enzyme and use thereof” (priority 1979, dated 1980)
Where two headings read alike, the source gives them in different places.

What was measured:
[1] = test system: P(40) particulate fraction of Methylosinus sp. (CRL-15, NRRL B-11,202); experiment: Effect of metals on propylene epoxidation and methane hydroxylation by P(40) fraction; assay type: biochemical; conditions: metal 10^-3 M; for Methane-Oxidizing Activity in presence of metal: control 4.0; for Propylene-Oxidizing Activity in presence of metal: control […]
Method: The oxidation of methane and propylene by particulate [(P)40 and(P)80] fractions and soluble [S(80)] fraction was measured at 30° C. by estimating the production of methanol and propylene oxide, respectively. The reaction mixtures contained in 1.0 ml: 150 mM potassium phosphate buffer, pH 7.0 containing 5 mM MgCl2, 0.6 ml; 10 μmoles NADH, and cellular fraction.
Reaction mixtures were contained in 10 ml vials at 4° C. Vials were sealed with rubber caps. The gaseous phase in the vials was removed using vacuum and then was replaced with a gas mixture of methane or propylene and oxygen at a 1:1, v/v ratio. Oxidation of other gaseous n-alkanes and n-alkenes was examined as described above. For liquid substrates, 10 μl of substrate was used directly.
Since the methane mono-oxygenase from methane-utilizing bacteria is a copper or iron-containing protein (Tonge et al., J. Biochem., 161: 333-344 (1977)), we have examined the effect of copper and iron salts on the oxidation of methane and propylene by the P(40) particulate fraction of Methylosinus sp. (CRL-15, NRRL B-11,202). The rate of hydroxylation of methane to methanol and epoxidation of propylene to propylene oxide was increased twofold in the presence of added copper salts (Table XII).

[2] = test system: secondary alcohol dehydrogenase; experiment: Purified yeast secondary alcohol dehydrogenase: substrates, electron acceptors, inhibitors, stoichiometry; assay type: biochemical, Pichia sp. NRRL Y-11,328
Method: Large scale cultures of Pichia sp. NRRL Y-11,328 were grown with aeration at 30° C. in a 14-liter New Brunswick f fermentor in a mineral salt medium containing methanol (0.4%, v/v) as the sole carbon source. The cells (200 g., wet weight) were suspended in […] sodium phosphate buffer, pH 7.0, containing 1 mM dithiothreitol (buffer A), and crude extracts were prepared as described previously. To the crude extracts, 18 ml. of protamine sulfate solution [2% solution in 0.1 M tris (hydroxymethyl) aminomethane (tris) base] was added dropwise with continuous stirring. After standing for 30 min., the extracts were centrifuged at 20,000×g. for 60 min. The supernatant solution was fractionated with solid ammonium sulfate. Extracts were brought to 50% of saturation with respect to ammonium sulfate by addition of 313 g. of the salt per liter of extract. Precipitated proteins was removed by centrifugation, and 137 g. of ammonium sulfate was added per liter of the supernatant liquid to bring it to 70% of saturation. Material precipitating between 50 and 70% of saturation was collected by centrifugation and dissolved in buffer A. This preparation was dialyzed overnight against buffer A, and the dialyzed material was applied to a DEAE-cellulose column (5×40 cm) that had been equilibrated with buffer A. The sample was washed with 200 ml. of buffer A and eluted with 2 liters of buffer A that contained NaCl in a linear gradient running from a concentration of 0 to 0.5 M. Fractions of 15 ml. were collected. Fractions containing secondary alcohol dehydrogenase activity were pooled and were termed DEAE-cellulose eluate. The DEAE-cellulose eluate was concentrated by ammonium sulfate fractionation.
Secondary alcohol dehydrogenase activity was measured spectrophotometrically at 340 nm with a NAD^+ as an electron acceptor. The reaction mixture, in a total 3.0 ml., contained 50 mM phosphate buffer, pH 8.0, 5μ moles NAD^+, crude extracts, and subtrate. The reactions were started by addition of 100 μl of 0.1 M substrate and the rate of NAD^+ reduction was measured. Protein concentration was determined by the method of Lowry et al.
The substrate specificity of the purified secondary alcohol dehydrogenase was examined spectrophotometrically.

[3] = test system: secondary alcohol dehydrogenase (SADH); experiment: Purified secondary alcohol dehydrogenase activity (formation of reduced NAD); assay type: biochemical, Pseudomonas sp. ATCC 21439
Method: Secondary alcohol dehydrogenase (SADH) from an obligate methanol utilizer, Pseudomonas sp. ATCC 21439 was purified as follows. […] 0.05 M sodium phosphate buffer, pH 7.0 with 0.5 mM dithiothretol (buffer A) and were disrupted sonically (5×1 min.). The crude extract was separated by centrifugation. The crude extract was heat-treated at 50° C. in a water bath for 10 minutes. The resulting precipitate was removed by centrifugation. To the supernatant solution, 25 ml of protamine sulfate solution (2% solution in 0.1 M Tris base) was added dropwise with continuous stirring. After standing for 30 minutes, the extract was centrifuged. The supernatant solution was fractionated with solid ammonium sulfate. The material precipitating between 30 and 60% saturation was collected and was dialized overnight against buffer A. The The dialized material was applied to a DEAE-cellulose column (3 cm by 35 cm) that had been equilibrated with buffer A. The secondary alcohol dehydrogenase activity was eluted in the void volume. This DEAE-cellulose eluate was concentrated by ammonium sulfate fractionation. Material precipitating between 30 and 50% ammonium sulfate saturation was collected by centrifugation and dialyzed overnight against A. This fraction was further washed and filtered through an Amicon unit with XM 50 membrane. The concentrated fraction (6 ml) inside the Amicon unit was applied to an Affi-Gel Blue column (0.8 cm×18 cm) which had been equilibrated with buffer A for affinity chromatography. The column was washed overnight with buffer A (0.18 ml./min.) and then was eluted with buffer A containing 5 mM NAD. Each 1 ml. fraction was collected.
The purified secondary alcohol dehydrogenase enzyme (SADH) may be used directly for converting C3 -C6 secondary alcohols to the corresponding methyl ketones by the procedures described above; however, a source of NAD^+ must be added to the reaction medium. One can determine the NAD-linked secondary alcohol dehydrogenase activity with a fluorescence spectrophotometer (Perkin Elmer, Model MPF 44A) by following the formation of reduced NAD (Ex 340 nm, Em 460 nm). The assay system (3 ml.) will typically contain: sodium phosphate buffer pH 7.0, 150 μmol; NAD 1.0 μmol; a given amount of enzyme preparation; and 20 μmol secondary alcohol. The reaction is started by the addition of secondary alcohol. One unit of SADH enzyme activity represents the reduction of one nmole NAD per minute.
The effect of metal-chelating agents and thioreagents on the activity of the purified SADH enzyme were studied. […] The possibility of ethanol or n-propanol as an inhibitor was studied.

[4] = test system: P(40) particulate fraction of Methylosinus sp. (CRL-15, NRRL B-11,202); experiment: Oxidation of n-alkenes and n-alkanes by P(40) particulate fraction; assay type: biochemical; conditions: substrate oxidized to its epoxide or alcohol, 30° C.
[5] = test system: Methylosinus trichosporium OB3b (NRRL B-11,196); experiment: Effect of inhibitors on epoxidation of propylene and hydroxylation of methane, cell-containing enzyme preparation; assay type: cell-based; conditions: NRRLB11, 1 h
[6] = test system: Methylococcus capsulatus (CRL Ml, NRRL B-11,219); experiment: as above; assay type: cell-based; conditions: Methylococcus capsulatus, NRRLB11, 1 h
[7] = test system: Methylobacterium organophilum (CRL 26, NRRL B-11,222); experiment: as above; assay type: cell-based; conditions: NRRLB11, 1 h
[8] = examined spectrophotometrically
[9] = purified SADH, each inhibitor 1 mM, measured spectrofluorometrically
[10] = read-out: % Inhibition, Epoxidation
[11] = read-out: % Inhibition, Hydroxylation

O=S(=O)([O-])[O-].[Cu+2] [Cupric Sulfate]
Methane-Oxidizing Activity in presence of metal [1]: 7.1 μmoles/hr/mg protein
Propylene-Oxidizing Activity in presence of metal [1]: 9.0 μmoles/hr/mg protein
inhibition of secondary alcohol dehydrogenase activity [2]: inhibited

CCCO [n-propanol]
% inhibition of SADH activity [3]: did not inhibit
oxidation by the purified secondary alcohol dehydrogenase [2]: not oxidized

C=CC=C [Butadiene]
Rate of Product Formation [4]: 0.63 μ moles/hr/mg of protein

CC(O)CCO (stereo not drawn) [butane 1,3-diol]
substrate specificity of purified SADH [3]: lower rate
relative percent rate of oxidation by SADH ([3]; 2-butanol = 100%): 2%
oxidation by the purified secondary alcohol dehydrogenase [2, 8]: not oxidized

CCO [ethanol]
% inhibition of SADH activity [3]: did not inhibit
oxidation by the purified secondary alcohol dehydrogenase [2]: not oxidized

O=C(O)c1cc(SSc2ccc([N+](=O)[O-])c(C(=O)O)c2)ccc1[N+](=O)[O-] [5,5'-dithiobis(2-nitrobenzoic acid)]
% inhibition of SADH activity [3, 9]: 100%
% inhibition of SADH activity ([3]; purified SADH, each inhibitor 1 mM, measured spectrofluorometrically, listed as 5,5'-dithiobis (2-nitrobenzoic acid)): inhibited

CCC(O)CO (stereo not drawn) [butane 1,2-diol]
relative percent rate of oxidation by SADH ([3]; 2-butanol = 100%): not oxidized
oxidation by the purified secondary alcohol dehydrogenase [2, 8]: not oxidized

[Cl][Fe]([Cl])[Cl] [Ferric Chloride]
Methane-Oxidizing Activity in presence of metal [1]: 4.8 μmoles/hr/mg protein
Propylene-Oxidizing Activity in presence of metal [1]: 5.8 μmoles/hr/mg protein

CCCCCO [pentan-1-ol]
oxidation by the purified secondary alcohol dehydrogenase [2, 8]: not oxidized

[Fe+2] [ferrous]
% inhibition of SADH activity [3, 9]: 50%

CCCCC(C)O (stereo not drawn) [2-hexanol]
substrate specificity of purified SADH [3]: lower rate
relative percent rate of oxidation by SADH ([3]; 2-butanol = 100%): 2%
oxidation by the purified secondary alcohol dehydrogenase [2, 8]: catalyzed the oxidation

[Cu+2] [cupric]
% inhibition of SADH activity [3, 9]: 25%

C=O [formaldehyde]
relative percent rate of oxidation by SADH [3]: not oxidized

CCCCO [butan-1-ol]
oxidation by the purified secondary alcohol dehydrogenase [2]: not oxidized

C=C [Ethylene]
Rate of Product Formation [4]: 1.27 μ moles/hr/mg of protein

CCCC(C)O (stereo not drawn) [2-pentanol]
substrate specificity of purified SADH [3]: lower rate
relative percent rate of oxidation by SADH ([3]; 2-butanol = 100%): 5%
oxidation by the purified secondary alcohol dehydrogenase [2, 8]: catalyzed the oxidation

[Ni+2] [nickel]
% inhibition of SADH activity [3, 9]: 20%

CCCCCCC(C)O (stereo not drawn) [2-octanol]
oxidation by the purified secondary alcohol dehydrogenase [2, 8]: not oxidized

cytochrome c
electron acceptor for the purified enzyme [2]: could not act as electron carrier

[Fe+3] [ferric]
% inhibition of SADH activity [3, 9]: 35%

[Mn+2] [Mn^++]
% inhibition of SADH activity [3, 9]: 0%

CC(O)C(C)O (stereo not drawn) [butane 2,3-diol]
substrate specificity of purified SADH [3]: lower rate
relative percent rate of oxidation by SADH ([3]; 2-butanol = 100%): 2.5%

CCCCCC(C)O (stereo not drawn) [2-Heptanol]
oxidation by the purified secondary alcohol dehydrogenase [2, 8]: not oxidized

CC [Ethane]
Rate of Product Formation [4]: 3.2 μ moles/hr/mg of protein

CC(O)CO (stereo not drawn) [1,2-propandiol]
oxidation by the purified secondary alcohol dehydrogenase [2, 8]: not oxidized

[Co+2] [Co^++]
% inhibition of SADH activity [3, 9]: 0%

CC(C)CO [isobutanol]
relative percent rate of oxidation by SADH ([3]; 2-butanol = 100%): not oxidized

c1c[nH]cn1 [Imidazole]
inhibition at 1000 µM [5, 10]: 95%
inhibition at 1000 µM [5, 11]: 90%
inhibition at 1000 µM [6, 10]: 95%
inhibition at 1000 µM [6, 11]: 95%
inhibition at 1000 µM [7, 10]: 100%
inhibition at 1000 µM [7, 11]: 100%
inhibition of secondary alcohol dehydrogenase activity [2]: strongly inhibited

[Zn+2] [Zn^++]
% inhibition of SADH activity [3, 9]: 0%
% inhibition of SADH activity ([3]; purified SADH, each inhibitor 1 mM, measured spectrofluorometrically, listed as zinc): did not stimulate

[Mg+2] [Mg^++]
% inhibition of SADH activity [3, 9]: 0%

CC(C)O [2-propanol]
substrate specificity of purified SADH [3]: highest
relative percent rate of oxidation by SADH ([3]; 2-butanol = 100%): 85%
NAD^+ Reduced [2]: 5.4 µmol
Product formed [2]: 5.5 µmol
oxidation by the purified secondary alcohol dehydrogenase [2, 8]: catalyzed the oxidation

CCN1C(=O)C=CC1=O [N-ethylmalemide]
% inhibition of SADH activity [3, 9]: 6%
% inhibition of SADH activity ([3]; purified SADH, each inhibitor 1 mM, measured spectrofluorometrically, listed as N-ethylmaleimide): not inhibited

C=CCC [1-Butene]
Rate of Product Formation [4]: 2.18 μ moles/hr/mg of protein

Ferrous Sulfate
Methane-Oxidizing Activity in presence of metal [1]: 4.8 μmoles/hr/mg protein
Propylene-Oxidizing Activity in presence of metal [1]: 5.9 μmoles/hr/mg protein

[Cl][Cu] [Cuprous Chloride]
Methane-Oxidizing Activity in presence of metal [1]: 7.2 μmoles/hr/mg protein
Propylene-Oxidizing Activity in presence of metal [1]: 9.2 μmoles/hr/mg protein

O=C(O)CCC(=O)O [succinic acid]
relative percent rate of oxidation by SADH ([3]; 2-butanol = 100%): not oxidized

N#C[S][Hg][S]C#N [mercuric thiocyanate]
inhibition of secondary alcohol dehydrogenase activity [2]: inhibited

CO [methanol]
oxidation by the purified secondary alcohol dehydrogenase [2, 8]: not oxidized

O=[N+]([O-])[O-].[Ag+] [silver nitrate]
inhibition of secondary alcohol dehydrogenase activity [2]: inhibited

O=Cc1ccccc1 [benzaldehyde]
relative percent rate of oxidation by SADH ([3]; 2-butanol = 100%): not oxidized

Oc1ccccc1 [phenol]
relative percent rate of oxidation by SADH [3]: not oxidized

O=C(O)c1cc[c]([Hg+])cc1.[OH-] [p-hydroxymercuribenzoate]
% inhibition of SADH activity [3, 9]: 100%
inhibition of secondary alcohol dehydrogenase activity [2]: strongly inhibited

CC=O [acetaldehyde]
substrate specificity of purified SADH [3]: lower rate
relative percent rate of oxidation by SADH ([3]; 2-butanol = 100%): 4%

OC1CCCCC1 [cyclohexanol]
substrate specificity of purified SADH [3]: lower rate
relative percent rate of oxidation by SADH ([3]; 2-butanol = 100%): 4%
